In patent publication EP4722207A1, “OXOISOINDOLINYL-SUBSTITUTED TETRAHYDROPYRIMIDINEDIONE DERIVATIVE AND USE THEREOF” (Gluetacs Therapeutics (Shanghai) Co., Ltd., priority 2023, dated 2024):

How the values were obtained:
H292 = experiment: Cell viability assay (CellTiter-Meiluncell Luminescent), tumor cell proliferation, H292; details: Homo sapiens, NCI-H292, 96 h; for inhibition at 0.01 µM: read-out: Inhibition Rate at 10 nM (%); for inhibition at 0.5 µM: read-out: Inhibition Rate at 500 nM (%)
GSPT1 = biological target: T1, GSPT1 (Homo sapiens, UniProt P15170+Q96SW2); experiment: Western-blot assay, substrate protein degradation in hPBMCs: GSPT1; assay type: cell-based; details: 24 hours of compound treatment, 50 nM and 500 nM
T1 construct: effects of the compounds of the present disclosure on the expression of target proteins in cells; endogenous in cells; host or cells: human PBMCs (hPBMCs)
T1 sequence (P15170 whole entry): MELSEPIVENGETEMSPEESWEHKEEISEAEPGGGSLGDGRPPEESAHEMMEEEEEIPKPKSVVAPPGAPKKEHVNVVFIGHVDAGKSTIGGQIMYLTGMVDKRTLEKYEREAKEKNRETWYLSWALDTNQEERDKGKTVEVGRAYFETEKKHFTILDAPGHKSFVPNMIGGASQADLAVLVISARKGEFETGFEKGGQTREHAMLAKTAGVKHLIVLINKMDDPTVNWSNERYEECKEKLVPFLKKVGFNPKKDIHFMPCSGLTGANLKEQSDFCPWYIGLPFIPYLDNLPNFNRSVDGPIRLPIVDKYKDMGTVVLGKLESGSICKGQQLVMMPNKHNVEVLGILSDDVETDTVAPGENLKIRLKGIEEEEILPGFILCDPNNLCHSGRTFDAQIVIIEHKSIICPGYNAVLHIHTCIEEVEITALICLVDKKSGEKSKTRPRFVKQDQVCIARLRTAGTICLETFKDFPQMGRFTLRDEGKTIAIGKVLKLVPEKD
T1 sequence (Q96SW2 whole entry): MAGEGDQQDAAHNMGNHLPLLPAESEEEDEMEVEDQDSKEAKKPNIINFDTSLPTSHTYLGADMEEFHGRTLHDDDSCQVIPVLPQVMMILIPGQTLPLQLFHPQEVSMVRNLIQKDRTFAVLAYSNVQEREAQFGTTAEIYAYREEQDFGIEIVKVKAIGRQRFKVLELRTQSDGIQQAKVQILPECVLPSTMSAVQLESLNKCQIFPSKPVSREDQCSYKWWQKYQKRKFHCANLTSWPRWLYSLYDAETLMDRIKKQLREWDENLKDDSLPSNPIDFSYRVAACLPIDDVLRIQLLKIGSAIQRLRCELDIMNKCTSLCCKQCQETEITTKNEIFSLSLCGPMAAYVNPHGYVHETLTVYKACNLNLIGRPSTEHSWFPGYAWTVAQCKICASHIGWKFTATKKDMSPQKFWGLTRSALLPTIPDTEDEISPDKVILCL
T1 sequence (Q16531 whole entry partner): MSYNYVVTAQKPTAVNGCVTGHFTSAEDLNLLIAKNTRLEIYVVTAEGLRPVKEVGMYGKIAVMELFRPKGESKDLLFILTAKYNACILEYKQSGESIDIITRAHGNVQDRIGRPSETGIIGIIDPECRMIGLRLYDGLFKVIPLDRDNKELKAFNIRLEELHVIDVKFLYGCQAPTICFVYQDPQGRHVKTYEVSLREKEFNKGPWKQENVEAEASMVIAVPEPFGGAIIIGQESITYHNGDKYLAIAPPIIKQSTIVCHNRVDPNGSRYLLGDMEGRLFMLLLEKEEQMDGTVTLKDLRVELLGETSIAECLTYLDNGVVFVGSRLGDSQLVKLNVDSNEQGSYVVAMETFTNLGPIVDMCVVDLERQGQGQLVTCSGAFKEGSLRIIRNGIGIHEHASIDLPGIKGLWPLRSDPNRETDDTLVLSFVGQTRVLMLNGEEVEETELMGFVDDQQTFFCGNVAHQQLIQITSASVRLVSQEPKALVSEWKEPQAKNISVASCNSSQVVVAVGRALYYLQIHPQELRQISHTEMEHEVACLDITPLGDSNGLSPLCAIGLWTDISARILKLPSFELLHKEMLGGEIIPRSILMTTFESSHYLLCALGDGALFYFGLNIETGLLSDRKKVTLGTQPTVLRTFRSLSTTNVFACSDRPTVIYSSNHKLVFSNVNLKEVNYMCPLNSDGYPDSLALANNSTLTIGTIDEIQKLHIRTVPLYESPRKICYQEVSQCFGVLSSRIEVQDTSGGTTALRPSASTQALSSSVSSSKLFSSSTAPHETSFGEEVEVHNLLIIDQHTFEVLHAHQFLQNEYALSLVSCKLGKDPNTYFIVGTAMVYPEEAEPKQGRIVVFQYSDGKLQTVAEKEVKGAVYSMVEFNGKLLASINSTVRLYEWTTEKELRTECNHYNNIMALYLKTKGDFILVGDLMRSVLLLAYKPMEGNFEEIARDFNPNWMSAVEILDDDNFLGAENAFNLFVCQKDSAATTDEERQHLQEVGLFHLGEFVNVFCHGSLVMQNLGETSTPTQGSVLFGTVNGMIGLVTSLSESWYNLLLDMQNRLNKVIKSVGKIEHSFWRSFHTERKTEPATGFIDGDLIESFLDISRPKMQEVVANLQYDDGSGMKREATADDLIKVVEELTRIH

IKZF2 = biological target: T2, IKZF2 (Homo sapiens, UniProt Q96SW2+Q9UKS7); experiment: Western-blot assay, substrate protein degradation in hPBMCs: IKZF2; assay type: cell-based; details: 24 hours of compound treatment, 50 nM and 500 nM
T2 construct: effects of the compounds of the present disclosure on the expression of target proteins in cells; endogenous in cells; host or cells: human PBMCs (hPBMCs)
T2 sequence (Q9UKS7 whole entry): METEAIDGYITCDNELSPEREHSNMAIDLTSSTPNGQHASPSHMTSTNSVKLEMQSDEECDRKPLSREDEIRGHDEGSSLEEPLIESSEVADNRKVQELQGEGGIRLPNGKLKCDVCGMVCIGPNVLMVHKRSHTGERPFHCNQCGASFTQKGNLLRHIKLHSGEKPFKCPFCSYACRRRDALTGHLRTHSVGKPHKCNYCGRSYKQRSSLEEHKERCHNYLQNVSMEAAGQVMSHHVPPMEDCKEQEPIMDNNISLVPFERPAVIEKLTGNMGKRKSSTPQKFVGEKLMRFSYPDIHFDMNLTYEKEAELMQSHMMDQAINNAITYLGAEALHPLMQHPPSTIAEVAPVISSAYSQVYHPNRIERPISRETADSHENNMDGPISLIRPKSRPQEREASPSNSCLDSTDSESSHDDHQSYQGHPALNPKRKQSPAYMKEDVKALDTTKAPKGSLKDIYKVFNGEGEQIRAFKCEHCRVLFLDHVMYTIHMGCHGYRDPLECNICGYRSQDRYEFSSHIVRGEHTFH
T2 sequence (Q96SW2 whole entry): as the sequence (Q96SW2 whole entry) above
T2 sequence (Q16531 whole entry partner): as the sequence (Q16531 whole entry partner) above

CK1α = biological target: T3, CK1α (Homo sapiens, UniProt P48729+Q96SW2); experiment: Western-blot assay, substrate protein degradation in hPBMCs: CK1α; assay type: cell-based; details: 24 hours of compound treatment, 50 nM and 500 nM
T3 construct: effects of the compounds of the present disclosure on the expression of target proteins in cells; endogenous in cells; host or cells: human PBMCs (hPBMCs)
T3 sequence (P48729 whole entry): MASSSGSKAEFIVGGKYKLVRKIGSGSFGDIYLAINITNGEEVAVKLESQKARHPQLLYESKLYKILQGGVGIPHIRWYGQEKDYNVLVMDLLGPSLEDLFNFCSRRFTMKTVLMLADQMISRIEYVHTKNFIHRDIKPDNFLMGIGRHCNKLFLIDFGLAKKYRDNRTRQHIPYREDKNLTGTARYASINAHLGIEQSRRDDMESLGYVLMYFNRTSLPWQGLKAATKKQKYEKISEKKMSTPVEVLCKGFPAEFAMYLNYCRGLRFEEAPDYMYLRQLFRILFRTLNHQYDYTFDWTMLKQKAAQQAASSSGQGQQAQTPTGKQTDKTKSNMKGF
T3 sequence (Q96SW2 whole entry): as the sequence (Q96SW2 whole entry) above
T3 sequence (Q16531 whole entry partner): as the sequence (Q16531 whole entry partner) above

WEE1 = biological target: T4, WEE1 (Homo sapiens, UniProt P30291+Q96SW2); experiment: Western-blot assay, substrate protein degradation in hPBMCs: WEE1; assay type: cell-based; details: 24 hours of compound treatment, 50 nM and 500 nM
T4 construct: effects of the compounds of the present disclosure on the expression of target proteins in cells; endogenous in cells; host or cells: human PBMCs (hPBMCs)

IKZF3 = biological target: T5, IKZF3 (Homo sapiens, UniProt Q96SW2+Q9UKT9); experiment: Western-blot assay, substrate protein degradation in hPBMCs: IKZF3; assay type: cell-based; details: 24 hours of compound treatment, 50 nM and 500 nM
T5 construct: effects of the compounds of the present disclosure on the expression of target proteins in cells; endogenous in cells; host or cells: human PBMCs (hPBMCs)
T5 sequence (Q9UKT9 whole entry): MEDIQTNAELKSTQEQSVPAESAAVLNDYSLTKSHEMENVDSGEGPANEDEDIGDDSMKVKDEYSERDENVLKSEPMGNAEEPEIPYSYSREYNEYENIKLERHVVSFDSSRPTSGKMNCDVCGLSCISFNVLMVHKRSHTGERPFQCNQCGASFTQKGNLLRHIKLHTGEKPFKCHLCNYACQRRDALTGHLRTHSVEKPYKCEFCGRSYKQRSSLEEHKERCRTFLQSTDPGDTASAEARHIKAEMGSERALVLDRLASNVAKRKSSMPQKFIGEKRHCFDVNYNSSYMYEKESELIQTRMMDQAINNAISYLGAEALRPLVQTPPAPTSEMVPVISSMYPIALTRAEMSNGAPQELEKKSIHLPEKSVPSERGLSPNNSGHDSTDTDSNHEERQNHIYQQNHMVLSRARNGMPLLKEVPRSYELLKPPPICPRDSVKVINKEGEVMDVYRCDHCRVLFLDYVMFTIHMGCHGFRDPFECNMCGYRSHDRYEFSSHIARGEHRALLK
T5 sequence (Q96SW2 whole entry): as the sequence (Q96SW2 whole entry) above
T5 sequence (Q16531 whole entry partner): as the sequence (Q16531 whole entry partner) above

IKZF1 = biological target: T6, IKZF1 (Homo sapiens, UniProt Q13422+Q96SW2); experiment: Western-blot assay, substrate protein degradation in hPBMCs: IKZF1; assay type: cell-based; details: 24 hours of compound treatment, 50 nM and 500 nM
T6 construct: effects of the compounds of the present disclosure on the expression of target proteins in cells; endogenous in cells; host or cells: human PBMCs (hPBMCs)
T6 sequence (Q13422 whole entry): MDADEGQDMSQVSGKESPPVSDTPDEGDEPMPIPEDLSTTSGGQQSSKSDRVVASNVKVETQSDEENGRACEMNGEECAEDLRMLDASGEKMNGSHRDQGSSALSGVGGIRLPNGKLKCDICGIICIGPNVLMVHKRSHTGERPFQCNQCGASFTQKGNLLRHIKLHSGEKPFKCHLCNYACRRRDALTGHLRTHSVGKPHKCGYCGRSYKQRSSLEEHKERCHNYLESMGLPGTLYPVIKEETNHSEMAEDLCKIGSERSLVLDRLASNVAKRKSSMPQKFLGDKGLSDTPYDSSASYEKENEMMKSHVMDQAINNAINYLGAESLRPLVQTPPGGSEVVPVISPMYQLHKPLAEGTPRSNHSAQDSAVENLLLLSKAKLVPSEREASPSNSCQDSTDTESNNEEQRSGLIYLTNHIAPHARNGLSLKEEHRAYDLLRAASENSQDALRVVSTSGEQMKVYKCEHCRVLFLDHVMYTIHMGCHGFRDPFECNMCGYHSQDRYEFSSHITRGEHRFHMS
T6 sequence (Q96SW2 whole entry): as the sequence (Q96SW2 whole entry) above
T6 sequence (Q16531 whole entry partner): as the sequence (Q16531 whole entry partner) above

Row | Structure (SMILES) | inhibition at 0.01 µM (H292) | inhibition at 0.5 µM (H292) | substrate protein remaining % GSPT1 (GSPT1) | substrate protein remaining % IKZF2 (IKZF2) | substrate protein remaining % CK1α (CK1α) | substrate protein remaining % WEE1 (WEE1) | substrate protein remaining % IKZF3 (IKZF3) | substrate protein remaining % IKZF1 (IKZF1)
1 | O=C1CCN(N2C(=O)c3ccc(CN4CCN(c5ncnc6sc7c(c56)CCC7)CC4)cc3C2=O)C(=O)N1 [GT-08103, 5-((4-(6,7-dihydro-5H-cyclopenta[4,5]thieno[2,3-d]pyrimidin-4-yl)piperazin-1-yl)methyl)-2-(2,4-dioxotetrahydropyrimidin-1(2H)-yl)isoindoline-1,3-dione] | 15 to 20% | 15 to 20% | B (80%< substrate protein remaining %≤ 100%) | A (0% ≤ substrate protein remaining % ≤ 80%) | B (80%< substrate protein remaining %≤ 100%) | B (80%< substrate protein remaining %≤ 100%) | A (0% ≤ substrate protein remaining % ≤ 80%) | B (80%< substrate protein remaining %≤ 100%)
2 | O=C1CCN(N2C(=O)c3ccc(CN4CCN(c5ncc6ccsc6n5)CC4)cc3C2=O)C(=O)N1 [GT-08105, 2-(2,4-dioxotetrahydropyrimidin-1(2H)-yl)-5-((4-(thieno[2,3-d]pyrimidin-2-yl)piperazin-1-yl)methyl)isoindoline-1,3-dione] | 10 to 15% | 10 to 15% | A (0% ≤ substrate protein remaining % ≤ 80%) | A (0% ≤ substrate protein remaining % ≤ 80%) | B (80%< substrate protein remaining %≤ 100%) | B (80%< substrate protein remaining %≤ 100%) | A (0% ≤ substrate protein remaining % ≤ 80%) | B (80%< substrate protein remaining %≤ 100%)
3 | O=C1CCN(N2Cc3cc(CN4CCC(c5ncc6ccsc6n5)CC4)ccc3C2=O)C(=O)N1 [GT-08115, 1-(1-oxo-5-((4-(thieno[2,3-d]pyrimidin-2-yl)piperidin-1-yl)methyl)isoindolin-2-yl)dihydropyrimidine-2,4(1H,3H)-dione] | 20 to 40% | 15 to 20% | A (0% ≤ substrate protein remaining % ≤ 80%) | B (80%< substrate protein remaining %≤ 100%) | A (0% ≤ substrate protein remaining % ≤ 80%) | B (80%< substrate protein remaining %≤ 100%) | B (80%< substrate protein remaining %≤ 100%) | B (80%< substrate protein remaining %≤ 100%)
4 | O=C1CCN(N2C(=O)c3ccc(CN4CCC(c5ncnc6sc7c(c56)CCCC7)CC4)cc3C2=O)C(=O)N1 [GT-08424, 2-(2,4-dioxotetrahydropyrimidin-1(2H)-yl)-5-((4-(5,6,7,8-tetrahydrobenzo[4,5]thieno[2,3-d]pyrimidin-4-yl)piperidin-1-yl)methyl)isoindoline-1,3-dione] | 20 to 40% | 10 to 15% | A (0% ≤ substrate protein remaining % ≤ 80%) | B (80%< substrate protein remaining %≤ 100%) | A (0% ≤ substrate protein remaining % ≤ 80%) | B (80%< substrate protein remaining %≤ 100%) | B (80%< substrate protein remaining %≤ 100%) | B (80%< substrate protein remaining %≤ 100%)
5 | O=C1CCN(N2C(=O)c3ccc(CN4CCC(c5ncnc6sc7c(c56)CCC7)CC4)cc3C2=O)C(=O)N1 [GT-08425, 5-((4-(6,7-dihydro-5H-cyclopenta[4,5]thieno[2,3-d]pyrimidin-4-yl)piperidin-1-yl)methyl)-2-(2,4-dioxotetrahydropyrimidin-1(2H)-yl)isoindoline-1,3-dione] | 15 to 20% | 5 to 10% | – | – | – | – | – | –
6 | Cc1nc(C2CCN(Cc3ccc4c(c3)C(=O)N(N3CCC(=O)NC3=O)C4=O)CC2)c2c3c(sc2n1)CCC3 [GT-08426, 2-(2,4-dioxotetrahydropyrimidin-1(2H)-yl)-5-((4-(2-methyl-6,7-dihydro-5H-cyclopenta[4,5]thieno[2,3-d]pyrimidin-4-yl)piperidin-1-yl)methyl)isoindoline-1,3-dione] | 20 to 40% | 20 to 40% | – | – | – | – | – | –
7 | O=C1CCN(N2C(=O)c3ccc(CN4CCC(c5ncc6ccsc6n5)CC4)cc3C2=O)C(=O)N1 [GT-08427, 2-(2,4-dioxotetrahydropyrimidin-1(2H)-yl)-5-((4-(thieno[2,3-d]pyrimidin-2-yl)piperidin-1-yl)methyl)isoindoline-1,3-dione] | 15 to 20% | 20 to 40% | B (80%< substrate protein remaining %≤ 100%) | A (0% ≤ substrate protein remaining % ≤ 80%) | B (80%< substrate protein remaining %≤ 100%) | A (0% ≤ substrate protein remaining % ≤ 80%) | B (80%< substrate protein remaining %≤ 100%) | B (80%< substrate protein remaining %≤ 100%)
8 | Cc1csc2ncnc(C3=CCN(Cc4ccc5c(c4)C(=O)N(N4CCC(=O)NC4=O)C5=O)CC3)c12 [GT-08428, 2-(2,4-dioxotetrahydropyrimidin-1(2H)-yl)-5-((4-(5-methylthieno[2,3-d]pyrimidin-4-yl)-3,6-dihydropyridin-1(2H)-yl)methyl)isoindoline-1,3-dione] | 5 to 10% | 20 to 40% | B (80%< substrate protein remaining %≤ 100%) | A (0% ≤ substrate protein remaining % ≤ 80%) | B (80%< substrate protein remaining %≤ 100%) | A (0% ≤ substrate protein remaining % ≤ 80%) | A (0% ≤ substrate protein remaining % ≤ 80%) | B (80%< substrate protein remaining %≤ 100%)
9 | CC(C)c1cc2c(C3=CCN(Cc4ccc5c(c4)C(=O)N(N4CCC(=O)NC4=O)C5=O)CC3)ncnc2s1 [GT-08429, 2-(2,4-dioxotetrahydropyrimidin-1(2H)-yl)-5-((4-(6-isopropylthieno[2,3-d]pyrimidin-4-yl)-3,6-dihydropyridin-1(2H)-yl)methyl)isoindoline-1,3-dione] | 20 to 40% | 20 to 40% | – | – | – | – | – | –
10 | O=C1CCN(N2C(=O)c3ccc(CN4CC=C(c5ncnc6sc(-c7ccccc7)cc56)CC4)cc3C2=O)C(=O)N1 [GT-08430, 2-(2,4-dioxotetrahydropyrimidin-1(2H)-yl)-5-((4-(6-phenylthieno[2,3-d]pyrimidin-4-yl)-3,6-dihydropyridin-1(2H)-yl)methyl)isoindoline-1,3-dione] | 15 to 20% | 10 to 15% | B (80%< substrate protein remaining %≤ 100%) | B (80%< substrate protein remaining %≤ 100%) | B (80%< substrate protein remaining %≤ 100%) | A (0% ≤ substrate protein remaining % ≤ 80%) | B (80%< substrate protein remaining %≤ 100%) | B (80%< substrate protein remaining %≤ 100%)
11 | Cc1nc(C2=CCN(Cc3ccc4c(c3)C(=O)N(N3CCC(=O)NC3=O)C4=O)CC2)c2c3c(sc2n1)CCCC3 [GT-08432, 2-(2,4-dioxotetrahydropyrimidin-1(2H)-yl)-5-((4-(2-methyl-5,6,7,8-tetrahydrobenzo[4,5]thieno[2,3-d]pyrimidin-4-yl)-3,6-dihydropyridin-1(2H)-yl)methyl)isoindoline-1,3-dione] | 20 to 40% | 20 to 40% | A (0% ≤ substrate protein remaining % ≤ 80%) | B (80%< substrate protein remaining %≤ 100%) | A (0% ≤ substrate protein remaining % ≤ 80%) | B (80%< substrate protein remaining %≤ 100%) | A (0% ≤ substrate protein remaining % ≤ 80%) | B (80%< substrate protein remaining %≤ 100%)
12 | O=C1CCN(N2C(=O)c3ccc(CN4CC=C(c5ncnc6sc7c(c56)CCC7)CC4)cc3C2=O)C(=O)N1 [GT-08434, 5-((4-(6,7-dihydro-5H-cyclopenta[4,5]thieno[2,3-d]pyrimidin-4-yl)-3,6-dihydropyridin-1(2H)-yl)methyl)-2-(2,4-dioxotetrahydropyrimidin-1(2H)-yl)isoindoline-1,3-dione] | 20 to 40% | 15 to 20% | A (0% ≤ substrate protein remaining % ≤ 80%) | A (0% ≤ substrate protein remaining % ≤ 80%) | A (0% ≤ substrate protein remaining % ≤ 80%) | B (80%< substrate protein remaining %≤ 100%) | A (0% ≤ substrate protein remaining % ≤ 80%) | A (0% ≤ substrate protein remaining % ≤ 80%)
13 | O=C1CCN(N2C(=O)c3ccc(CN4CCN(c5nc(N6CCOCC6)c6sccc6n5)CC4)cc3C2=O)C(=O)N1 [GT-08456, 2-(2,4-dioxotetrahydropyrimidin-1(2H)-yl)-5-((4-(4-morpholinothieno[3,2-d]pyrimidin-2-yl)piperazin-1-yl)methyl)isoindoline-1,3-dione] | 5 to 10% | 20 to 40% | – | – | – | – | – | –
